The record followed here is patent publication US9751851B2, “Molecules and compositions that inhibit gram negative bacteria and their uses” (THE TRUSTEES OF PRINCETON UNIVERSITY, priority 2013, dated 2017).

Test [1] deals with P. aeruginosa PA14. Briefly: Microfluidic flow cell clogging (time until clogging). Type of test: cell-based. As to conditions: wild-type P. aeruginosa PA14, 100 μM mBTL. The protocol:
Microfluidic Flow Cells. Methods. Overnight P. aeruginosa PA14 cultures were back-diluted 1:1000 into 800 mL of tryptone broth (1% tryptone in H2O) with or without 100 μM mBTL and grown to mid-logarithmic phase (OD600=0.5). These cultures were used to fill 100 mL reservoirs that fed into microfluidic flow channels via Tygon tubing with an inner diameter of 2.4 mm. Similar tubing connected the outlet of the microfluidic channel to a collection dish on an analytical balance controlled via LabVIEW. The elevation of the culture reservoir above the collection dish on the balance set the constant pressure difference that drove the flow through the microfluidic channel. The microfluidic channel is 200 μm wide, 90 μm high, and contains a sequence of 37 bends that mimic corners in porous materials. The weight of the effluent culture was measured as a function of time t with measurement intervals of 4 s, and the data were converted into a flow rate Q(t) via the equation
[formula] where Δt=30 s and the density is assumed to be that of water, 1 kg/L. To the resulting flow rate time series Q(t), the function
[formula] was fitted which yields the measurement of the time until clogging (corresponding to the time at which the flow rate declined to 50% of its baseline value Q0).

Test [2] deals with P. aeruginosa PA14. Briefly: C. elegans fast killing infection assay. Type of test: in vivo. On the procedure: Methods. C. elegans fast killing assays were conducted with 90 wild-type N2 worms for each condition (30 worms/replicate, 3 replicates performed). C. elegans were propagated on NGM plates prior to eggs being harvested from gravid adults using a standard bleaching protocol (30 mL 5% bleach, 15 mL 5 M KOH, 55 mL dH2O). Harvested eggs were placed on lawns of fresh E. coli HB101 and allowed to grow for 48 hr (to reach the L4 stage) at 20° C. prior to being moved to lawns of P. aeruginosa and placed at 25° C. on sorbitol, glucose, cholesterol plates. Nematodes were scored for survival every hr for 5 hr and again at 24 hr. The % living worms was calculated in triplicate for each time point. 50 μM mBTL or an equivalent volume of DMSO was added to plates and to the bacterial cultures during growth.

Test [3] relates to P. aeruginosa PA14. The experiment in a line: Growth of P. aeruginosa monitored by absorbance at 600 nm. Type of test: cell-based.
Another test deals with T1, RhlR (Pseudomonas aeruginosa, UniProt P54292).
T1 construct: expressed in transfected cells; host or cells: E. coli BL21-Gold (DE3) carrying pET23b-rhlR
T1 sequence (P54292 whole entry): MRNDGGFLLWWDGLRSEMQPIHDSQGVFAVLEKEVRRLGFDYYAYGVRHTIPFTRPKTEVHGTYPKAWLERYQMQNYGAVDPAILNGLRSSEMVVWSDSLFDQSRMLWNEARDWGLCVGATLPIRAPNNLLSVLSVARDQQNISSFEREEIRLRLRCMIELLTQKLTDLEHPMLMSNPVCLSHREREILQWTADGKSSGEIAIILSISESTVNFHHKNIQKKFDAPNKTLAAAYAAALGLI
Briefly: RhlR-GFP assay (rhlA-gfp reporter in recombinant E. coli). Type of test: cell-based, P. aeruginosa. On the procedure: Methods. The LasR-GFP assays were performed in E. coli strain BL21 DE3 Gold (Agilent) carrying pET23b (Novagen) containing lasR (maintained with 100 μg/mL ampicillin) and carrying plasmid pEVS141 (31) containing the rsaL promoter driving expression of gfp (maintained with […] of kanamycin.) The RhlR-GFP assays were performed in E. coli strain BL21 DE3 Gold (Agilent) carrying pET23b (Novagen) containing rhlR (maintained with 100 μg/mL ampicillin) and carrying plasmid pEVS141 containing the rhlA promoter driving expression of gfp (maintained with 50 μg/mL of kanamycin.) These E. coli strains were grown overnight and subcultured into fresh medium with appropriate antibiotics at a 1:100 dilution and grown shaking for 8 hr at 37° C. for the LasR-GFP strain and 12 hr for the RhlR-GFP construct. 50 nM 3OC12-HSL or 20 μM C4-HSL was added to the LasR-GFP and RhlR-GFP preparations, respectively. Compounds were tested at 1 mM for antagonism and at 100 nM or 20 μM for agonism. These concentrations were chosen for agonism studies to match the concentrations of autoinducers used in the experiments. For antagonism studies, the EC95 concentration was used for each receptor. GFP was measured on an Envision plate reader.
The LasR-GFP assays were performed in E. coli strain BL21 DE3 Gold (Agilent) carrying pET23b (Novagen) containing lasR (maintained with 100 μg/mL ampicillin) and carrying plasmid pEVS141 (31) containing the rsaL promoter driving expression of gfp (maintained with 50 μg/mL of kanamycin.) The RhlR-GFP assays were performed in E. coli strain BL21 DE3 Gold (Agilent) carrying pET23b (Novagen) containing rhlR (maintained with 100 μg/mL ampicillin) and carrying plasmid pEVS141 (31) containing the rhlA promoter driving expression of gfp (maintained with 50 μg/mL of kanamycin.) These E. coli strains were grown overnight and subcultured into fresh medium with appropriate antibiotics at a 1:100 dilution and grown shaking for 8 hr at 37° C. for the LasR-GFP strain and 12 hr for the RhlR-GFP construct. 50 nM 3OC12-HSL or 20 μM C4-HSL was added to the LasR-GFP and RhlR-GFP preparations, respectively. Compounds were tested at 1 mM for antagonism and at 100 nM or 20 μM for agonism. These concentrations were chosen for agonism studies to match the concentrations of autoinducers used in our experiments. For antagonism studies, we used the EC95 concentration for each receptor. GFP was measured on an Envision plate reader.

On to meta-bromothiolactone [mBTL], for which the “clogging of microfluidic chambers” value with P. aeruginosa PA14 [1] is on record as “phenotype indistinguishable from the mutants”. Further, the C. elegans death turned out to be 50% with P. aeruginosa PA14 [2] (lasR mutant P. aeruginosa PA14 treated with 50 μM mBTL) and 23% in the test with P. aeruginosa PA14 [2] (wild-type P. aeruginosa PA14 treated with 50 μM mBTL). The “effect on P. aeruginosa PA14 growth” value in the test with P. aeruginosa PA14 [3] is listed as “not affecting P. aeruginosa PA14 growth”. Further, the “inhibition of RhlR activation of rhlA-gfp (antagonism)” value at RhlR (mBTL at 1 mM, C4-HSL at EC95 (20 μM)) is listed as 43%. Further, at RhlR (no autoinducer, compound at 20 μM), the “RhlR partial agonism (gfp expression, cognate autoinducer = 100%)” value is listed as 80%.
